# Where a name gives a salt, the structure may show the parent alone.
# Molecular target: T1, Tau P301L (Homo sapiens, UniProt P10636, P618L)
# T1 construct: expressed in transfected cells
# Assay: In vitro tau degradation assay in CHOK1 Tau P301L cells (sarkosyl insoluble tau, WES)
# Assay type: cell-based
# Settings: CHO-K1; CHOK1 Tau P301L cells; remaining tau in sarkosyl insoluble pellet; 48 hours with test compound at 1 μM, doxycycline removed for last 24 hours; relative to DMSO doxycycline control; read-out: Tau Protein Degradation effect at 1 μM
# Method in brief: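 Sarkosyl-insoluble pellet tau, measured by WES capillary immunoassay (Tau1 antibody), was scored against DMSO doxycycline control as ≤50% or >50% remaining. Cells were CHOK1 clone D1 expressing Tau P301L under doxycycline (1 μg/ml), given 1 μM compound for 48 h with doxycycline withdrawn during the last 24 h.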
# T1 sequence (P10636 1-441 isoform P10636-8 P301L): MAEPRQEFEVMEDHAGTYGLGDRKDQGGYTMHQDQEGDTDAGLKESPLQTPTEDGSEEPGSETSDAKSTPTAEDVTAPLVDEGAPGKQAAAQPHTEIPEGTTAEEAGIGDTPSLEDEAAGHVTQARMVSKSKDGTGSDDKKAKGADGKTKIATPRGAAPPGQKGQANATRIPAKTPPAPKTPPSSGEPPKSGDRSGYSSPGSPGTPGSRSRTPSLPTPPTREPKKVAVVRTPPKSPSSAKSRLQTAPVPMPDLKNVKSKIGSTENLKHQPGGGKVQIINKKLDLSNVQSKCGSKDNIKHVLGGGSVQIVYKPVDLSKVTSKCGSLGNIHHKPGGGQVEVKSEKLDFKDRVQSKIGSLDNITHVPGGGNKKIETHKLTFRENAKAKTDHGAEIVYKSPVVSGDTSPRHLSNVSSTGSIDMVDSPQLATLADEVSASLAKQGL
row,remaining activity at 1 µM,Structure (SMILES)
1,< 50%,"O=C1CCC(N2C(=O)c3cc(F)c(N4CC5(CN(CCC6CCN(c7ncc(-c8ccc9c%10cnccc%10n(C(F)F)c9c8)cc7F)CC6)C5)C4)cc3C2=O)C(=O)N1 (stereo not shown) [Compound 642, 5-(6-(2-(1-(5-(5-(difluoromethyl)-5H-pyrido[4,3-b]indol-7-yl)-3-fluoropyridin-2-yl)piperidin-4-yl)ethyl)-2,6-diazaspiro[3.3]heptan-2-yl)-2-(2,6-dioxopiperidin-3-yl)-6-fluoroisoindoline-1,3-dione]"
2,< 50%,"O=C1CCC(N2C(=O)c3cc(F)c(N4CCN(CCC5CCN(c6ncc(-c7c(F)cc8c9cnccc9n(CC(F)(F)F)c8c7F)cn6)CC5)CC4)cc3C2=O)C(=O)N1 (stereo not shown) [Compound 645, 5-(4-(2-(1-(5-(6,8-difluoro-5-(2,2,2-trifluoroethyl)-5H-pyrido[4,3-b]indol-7-yl)pyrimidin-2-yl)piperidin-4-yl)ethyl)piperazin-1-yl)-2-(2,6-dioxopiperidin-3-yl)-6-fluoroisoindoline-1,3-dione]"

row,Structure (SMILES),remaining activity at 1 µM
1,"CN1CCc2c([nH]c3cc(-c4cnc(N5CCC(CCN6CCN(c7ccc8c(c7)C(=O)N(C7CCC(=O)NC7=O)C8=O)CC6)CC5)c(F)c4)ccc23)C1 (stereo not shown) [Compound 634, 2-(2,6-dioxopiperidin-3-yl)-5-(4-(2-(1-(3-fluoro-5-(2-methyl-2,3,4,9-tetrahydro-1H-pyrido[3,4-b]indol-7-yl)pyridin-2-yl)piperidin-4-yl)ethyl)piperazin-1-yl)isoindoline-1,3-dione]",< 50%

# Same assay, conditions: CHO-K1; remaining tau protein in sarkosyl insoluble pellet; CHOK1 Tau P301L cells treated 48 hours with test compound at 1 μM, doxycycline removed for the last 24 hours; relative to DMSO doxycycline control; read-out: Tau Protein Degradation effect at 1 μM
row,remaining activity at 1 µM,Structure (SMILES)
1,< 50%,"O=C1CCC(N2C(=O)c3ccc(N4CCN(C(=O)CC5CCN(c6ncc(-c7ccc8c9cnccc9n(C(F)F)c8c7)cc6F)CC5)CC4)cc3C2=O)C(=O)N1 (stereo not shown) [Compound 592, 5-(4-(2-(1-(5-(5-(difluoromethyl)-5H-pyrido[4,3-b]indol-7-yl)-3-fluoropyridin-2-yl)piperidin-4-yl)acetyl)piperazin-1-yl)-2-(2,6-dioxopiperidin-3-yl)isoindoline-1,3-dione]"
2,> 50%,"Cn1c2ccncc2c2ccc(-c3ccc(O[C@H]4C[C@H](N(C)C5CC6(C5)CN(CCOc5ccc7c(c5)C(=O)N(C5CCC(=O)NC5=O)C7=O)C6)C4)nc3)cc21 (stereo partly shown) [Compound 392, 2-(2,6-dioxopiperidin-3-yl)-5-(2-(6-(methyl((1r,3r)-3-((5-(5-methyl-5H-pyrido[4,3-b]indol-7-yl)pyridin-2-yl)oxy)cyclobutyl)amino)-2-azaspiro[3.3]heptan-2-yl)ethoxy) isindoline-1,3-dione]"
3,< 50%,"O=C1CCC(N2C(=O)c3ccc(N4CCN(CCC5CCN(c6ncc(-c7ccc8c9cncc(F)c9n(C(F)F)c8c7)cc6F)CC5)CC4)cc3C2=O)C(=O)N1 (stereo not shown) [Compound 652, 5-(4-(2-(1-(5-(5-(difluoromethyl)-4-fluoro-5H-pyrido[4,3-b]indol-7-yl)-3-fluoropyridin-2-yl)piperidin-4-yl)ethyl)piperazin-1-yl)-2-(2,6-dioxopiperidin-3-yl)isoindoline-1,3-dione]"
4,< 50%,"O=C1CCC(N2C(=O)c3ccc(N4CCN(CCC5CCN(c6ncc(-c7ccc8c9cnccc9n(CC(F)(F)F)c8n7)cc6F)CC5)CC4)cc3C2=O)C(=O)N1 (stereo not shown) [Compound 673, 2-(2,6-dioxopiperidin-3-yl)-5-(4-(2-(1-(3-fluoro-5-(9-(2,2,2-trifluoroethyl)-9H-pyrrolo[2,3-b:4,5-c′]dipyridin-2-yl)pyridin-2-yl)piperidin-4-yl)ethyl)piperazin-1-yl)isoindoline-1,3-dione]"
5,< 50%,"O=C1CCC(N2C(=O)c3ccc(N4CCN(CCC5CCN(c6ncc(-c7ccc8c9cc(F)cnc9n(C(F)F)c8c7)cc6F)CC5)CC4)cc3C2=O)C(=O)N1 (stereo not shown) [Compound 597, 5-(4-(2-(1-(5-(9-(difluoromethyl)-3-fluoro-9H-pyrido[2,3-b]indol-7-yl)-3-fluoropyridin-2-yl)piperidin-4-yl)ethyl)piperazin-1-yl)-2-(2,6-dioxopiperidin-3-yl)isoindoline-1,3-dione]"
6,> 50%,"N#Cc1cc(-c2ccc3c4cnccc4n(C(F)F)c3c2)cnc1N1CCC(CCN2CCN(c3ccc4c(c3)CN(C3CCC(=O)NC3=O)C4=O)CC2)CC1 (stereo not shown) [Compound 475, 5-(5-(difluoromethyl)-5H-pyrido[4,3-b]indol-7-yl)-2-(4-(2-(4-(2-(2,6-dioxopiperidin-3-yl)-1-oxoisoindolin-5-yl)piperazin-1-yl)ethyl)piperidin-1-yl)nicotinonitrile]"
7,< 50%,"O=C1CCC(N2C(=O)c3ccc(C#CCN4CCN(CCC5CCN(c6ncc(-c7ccc8c9cnccc9n(C(F)F)c8c7)cc6F)CC5)CC4)cc3C2=O)C(=O)N1 (stereo not shown) [Compound 566, 5-(3-(4-(2-(1-(5-(5-(difluoromethyl)-5H-pyrido[4,3-b]indol-7-yl)-3-fluoropyridin-2-yl)piperidin-4-yl)ethyl)piperazin-1-yl)prop-1-yn-1-yl)-2-(2,6-dioxopiperidin-3-yl)isoindoline-1,3-dione]"
8,< 50%,"O=C1CCC(N2C(=O)c3ccc(N4CCN(CCC5CCN(c6cc7ccn(-c8cc9cc(F)ccc9cn8)c7cn6)CC5)CC4)cc3C2=O)C(=O)N1 (stereo not shown) [Compound 598, 2-(2,6-dioxopiperidin-3-yl)-5-(4-(2-(1-(1-(6-fluoroisoquinolin-3-yl)-1H-pyrrolo[2,3-c]pyridin-5-yl)piperidin-4-yl)ethyl)piperazin-1-yl)isoindoline-1,3-dione]"
9,< 50%,"Cc1cc(Nc2ccc3nc(N4CCC(CCN5CCN(c6ccc7c(c6)C(=O)N(C6CCC(=O)NC6=O)C7=O)CC5)CC4)ccc3n2)ccn1 (stereo not shown) [Compound 584, 2-(2,6-dioxopiperidin-3-yl)-5-(4-(2-(1-(6-((2-methylpyridin-4-yl)amino)-1,5-naphthyridin-2-yl)piperidin-4-yl)ethyl)piperazin-1-yl)isoindoline-1,3-dione]"
10,< 50%,"O=C1CCC(N2C(=O)c3ccc(N4CCN(CC#CC5CCN(c6ncc(-c7ccc8c9cnccc9n(C(F)F)c8c7)cc6F)CC5)CC4)cc3C2=O)C(=O)N1 (stereo not shown) [Compound 574, 5-(4-(3-(1-(5-(5-(difluoromethyl)-5H-pyrido[4,3-b]indol-7-yl)-3-fluoropyridin-2-yl)piperidin-4-yl)prop-2-yn-1-yl)piperazin-1-yl)-2-(2,6-dioxopiperidin-3-yl)isoindoline-1,3-dione]"

row,Structure (SMILES),remaining activity at 1 µM
1,"Cc1ncsc1-c1ccc([C@H](C)NC(=O)[C@@H]2C[C@@H](O)CN2C(=O)[C@H](c2cc(OCCN3CCC(O[C@H]4C[C@H](Oc5ccc(-c6ccc7c8cnccc8n(C)c7c6)cn5)C4)CC3)no2)C(C)C)cc1 [Compound 399, (2S,4R)-4-hydroxy-1-((S)-3-methyl-2-(3-(2-(4-((1r,3S)-3-((5-(5-methyl-5H-pyrido[4,3-b]indol-7-yl)pyridin-2-yl)oxy)cyclobutoxy)piperidin-1-yl)ethoxy)isoxazol-5-yl)butanoyl)-N-((S)-1-(4-(4-methylthiazol-5-yl)phenyl)ethyl) pyrrolidine-2-carboxamide]",> 50%
2,"Cn1c2ccncc2c2ccc(-c3ccc(O[C@H]4C[C@H](OC5CCN(CCCN6CC(Oc7ccc8c(c7)C(=O)N(C7CCC(=O)NC7=O)C8=O)C6)CC5)C4)nc3)cc21 (stereo partly shown) [Compound 388, 2-(2,6-dioxopiperidin-3-yl)-5-((1-(3-(4-((1r,3r)-3-((5-(5-methyl-5H-pyrido[4,3-b]indol-7-yl)pyridin-2-yl)oxy)cyclobutoxy)piperidin-1-yl)propyl)azetidin-3-yl)oxy) isoindoline-1,3-dione]",< 50%
3,"Cc1ncsc1-c1ccc([C@H](C)NC(=O)[C@@H]2C[C@@H](O)CN2C(=O)[C@@H](c2cc(N3CCN(CCO[C@H]4C[C@H](Oc5ccc(-c6ccc7c8cnccc8n(C)c7c6)cn5)C4)CC3)no2)C(C)C)cc1 [Compound 391, (2S,4R)-4-hydroxy-1-((R)-3-methyl-2-(3-(4-(2-((1r,3R)-3-((5-(5-methyl-5H-pyrido[4,3-b]indol-7-yl)pyridin-2-yl)oxy)cyclobutoxy)ethyl)piperazin-1-yl)isoxazol-5-yl)butanoyl)-N-((S)-1-(4-(4-methylthiazol-5-yl)phenyl)ethyl) pyrrolidine-2-carboxamide]",< 50%
4,"Cn1c2ccncc2c2ccc(-c3ccc(O[C@H]4C[C@H](Oc5ccc(C#CCN6CC(Oc7ccc8c(c7)CN(C7CCC(=O)NC7=O)C8=O)C6)nc5)C4)nc3)cc21 (stereo partly shown) [Compound 340, 3-(5-((1-(3-(5-((1r,3r)-3-((5-(5-methyl-5H-pyrido[4,3-b]indol-7-yl)pyridin-2-yl)oxy)cyclobutoxy)pyridin-2-yl)prop-2-yn-1-yl)azetidin-3-yl)oxy)-1-oxoisoindolin-2-yl)piperidine-2,6-dione]",> 50%
5,"CC(C)N(CC1CCN(c2ncc(-c3ccc4c5cnccc5n(C(F)F)c4c3)cc2F)CC1)[C@H]1C[C@H](Oc2ccc3c(c2)C(=O)N(C2CCC(=O)NC2=O)C3=O)C1 (stereo partly shown) [Compound 581, 5-((1r,3r)-3-(((1-(5-(5-(difluoromethyl)-5H-pyrido[4,3-b]indol-7-yl)-3-fluoropyridin-2-yl)piperidin-4-yl)methyl)(isopropyl)amino)cyclobutoxy)-2-(2,6-dioxopiperidin-3-yl)isoindoline-1,3-dione]",< 50%
6,"O=C1CCC(N2C(=O)c3ccc(OCCCCCN4CCC(OC5CN(c6ncc(-c7ccc8c9cnccc9n(C(F)F)c8c7)cc6C(F)(F)F)C5)CC4)cc3C2=O)C(=O)N1 (stereo not shown) [Compound 442, 5-[5-[14-[1-[5-[5-(Difluoromethyl)pyrido[4,3-b]indol-7-yl]-3-(trifluoromethyl)-2-pyridyl]azetidin-3-yl]oxy-1-piperidyl]pentoxy]-2-(2,6-dioxo-3-piperidyl)isoindoline-1,3-dione formate]",< 50%

# From patent US11912699B2, “Tau-protein targeting compounds and associated” (Arvinas Operations, Inc., priority 2019, dated 2024)
